Reference: patent US7803801B2, “Aminopyridine compounds having Syk inhibitory activity” (Japan Tobacco, Inc., priority 2005, dated 2010)
Structures can show the parent of a compound that is named as a salt. Where two headings read alike, the source gives them in different places.

Assays:
[1] = tested on: cultured human mast cells; test: Degranulation inhibition test using cultured human mast cells (IgE cross-linking, β-Hexosaminidase release); assay type: cell-based; conditions: Mast cell, cultured human mast cells, read-out: human degranulation ave. IC50
In short: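 CD34+ cord-blood cells cultured ≥8 weeks with SCF/IL-6/IL-3; FcεRI primed 5 days with rhIL-4 (1 ng/mL) and hIgE (0.5 μg/mL). Compound (0.1% DMSO) preincubated 10 min at 37 °C, then anti-IgE (final 10 μg/mL) 30 min; released β-hexosaminidase read at 405 nm versus total lysate, IC50 (M).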

[2] = molecular target: GST-Syk Full Protein (human) (Homo sapiens, UniProt P43405); test: Syk kinase inhibition test (HTRF method); assay type: biochemical
In short: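 Human GST-Syk full-length (6.4 nM) phosphorylated biotin-EDPDYEWPSA-NH2 (250 nM) with 100 μM ATP in HEPES pH 7.0/MgCl2 buffer, 2% DMSO, 30 min at room temperature. EDTA stop, then HTRF detection (streptavidin-XL665, Eu anti-phosphotyrosine) after 1 h; 665/620 ratio read.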

[3] = anti-hIgE stimulation, β-Hexosaminidase index, average
[4] = HTRF, 100 μM ATP, 30 min room temperature, average, read-out: sykHTRF ave IC50
[5] = Tables 2-x, thiophene compounds B
[6] = Tables 2-x, thiophene compounds B, read-out: sykHTRK ave IC50
[7] = Tables 1-x, compounds A, read-out: sykHTRF ave IC50

Compound | IC50 [1, 3] [nM] | IC50 [2, 4] [nM] | also measured
Cc1ccnc(Nc2cccc(-c3cnc([C@H]4CC[C@H](CO)CC4)s3)n2)c1 [Compound A-211, (trans-4-{5-[6-(4-methylpyridin-2-ylamino)pyridin-2-yl]thiazol-2-yl}cyclohexyl)methanol] | 100 to 1000 | < 100 | –
O=C([C@H]1CC[C@H](c2ncc(-c3cccc(Nc4cc5ccccc5cn4)n3)s2)CC1)N1CCC(O)CC1 [Compound A-307] | 100 to 1000 | 100 to 1000 | –
Cc1ccnc(Nc2cccc(-c3cnc([C@@H](O)CN(C)C)s3)n2)c1 [Compound A-375] | 100 to 1000 | 100 to 1000 | –
Cc1ccnc(Nc2cccc(-c3ccc(C(=O)NC(C)(C)C(=O)O)s3)n2)c1 [Compound B-100] | – | – | IC50 [1, 5]: > 1000 nM; IC50 [2, 6]: 100 to 1000 nM
CC(=O)N[C@H]1CC[C@H](c2ncc(-c3cccc(Nc4cc(C)ccn4)n3)s2)CC1 [Compound A-202, N-(trans-4-{5-[6-(4-methylpyridin-2-ylamino)pyridin-2-yl]thiazol-2-yl}cyclohexyl)acetamide] | > 1000 | < 100 | –
CC(=O)N[C@@H](COCc1ccccc1)c1ncc(-c2cccc(Nc3cc(C)ccn3)n2)s1 [Compound A-45] | > 1000 | > 1000 | –
COc1ccc(NCc2ncc(-c3cccc(Nc4cc(C)ccn4)n3)s2)cc1 [Compound A-214] | > 1000 | 100 to 1000 | –
CC(=O)c1ccnc(Nc2cccc(-c3cnc(N4CCC[C@H]4C(N)=O)s3)n2)c1 [Compound A-561, (S)-1-{5-[6-(4-acetylpyridin-2-ylamino)pyridin-2-yl]thiazol-2-yl}pyrrolidine-2-carboxamide] | – | – | IC50 ([1]; Tables 1-x, compounds A): 100 to 1000 nM; IC50 [2, 7]: < 100 nM
CC(=O)N1CCN(Cc2ncc(-c3cccc(Nc4cc(C)ccn4)n3)s2)CC1 [Compound A-190] | 100 to 1000 | 100 to 1000 | –
CNc1ncc(-c2cccc(Nc3cc(C)ccn3)n2)s1 [Compound A-426, N-methyl-N-{5-[6-(4-methylpyridin-2-ylamino)pyridin-2-yl]thiazol-2-yl}amine] | 100 to 1000 | < 100 | –
Cc1ccnc(Nc2cccc(-c3cnc([C@@H]4CCCN4)s3)n2)c1 [Compound A-42] | > 1000 | 100 to 1000 | –
Cc1ccnc(Nc2cccc(-c3sc([C@H](C)NC(=O)CCC(=O)O)nc3C)n2)c1 [Compound A-116] | > 1000 | > 1000 | –
Cc1ccnc(Nc2cccc(-c3cnc(CCCCO)s3)n2)c1 [Compound A-132, 4-{5-[6-(4-methylpyridin-2-ylamino)pyridin-2-yl]thiazol-2-yl}butan-1-ol] | 100 to 1000 | < 100 | –
CC(=O)NC(C)(C)c1ncc(-c2cccc(Nc3cc(C)ccn3)n2)s1 [Compound A-114] | > 1000 | 100 to 1000 | –
Cc1ccnc(Nc2cccc(-c3cnc([C@@H]4COC(=O)N4CC(=O)O)s3)n2)c1 [Compound A-407] | – | – | IC50 ([1]; Tables 1-x, compounds A): > 1000 nM; IC50 [2, 7]: > 1000 nM
Cc1ccnc(Nc2cccc(-c3cnc([C@H]4CC[C@H](C(=O)NCCO)CC4)s3)n2)c1 [Compound A-267, N-(2-hydroxyethyl)-trans-4-{5-[6-(4-methylpyridin-2-ylamino)pyridin-2-yl]thiazol-2-yl}cyclohexanecarboxamide] | 100 to 1000 | < 100 | –
Cc1ccnc(Nc2cccc(-c3cnc(CN[C@H]4CC[C@H](O)CC4)s3)n2)c1 [Compound A-191] | 100 to 1000 | 100 to 1000 | –
CC(=O)OC(C)c1ccc(-c2cccc(Nc3cc(C)ccn3)n2)s1 (stereo not shown) [Compound B-4, 1-{5-[6-(4-methylpyridin-2-ylamino)pyridin-2-yl]thiophen-2-yl}ethyl acetate acetic acid ester] | – | – | IC50 [1, 5]: > 1000 nM; IC50 [2, 6]: 100 to 1000 nM
Cc1ccnc(Nc2cccc(-c3cnc(N4CCCC(COCC(N)=O)C4)s3)n2)c1 (stereo not shown) [Compound A-499, 2-(1-{5-[6-(4-methylpyridin-2-ylamino)pyridin-2-yl]thiazol-2-yl}piperidin-3-ylmethoxy)acetamide] | – | – | IC50 ([1]; Tables 1-x, compounds A): 100 to 1000 nM; IC50 [2, 7]: < 100 nM
Cc1ccnc(Nc2cccc(-c3cnc(N(C)CCc4ccc(C(=O)O)cc4)s3)n2)c1 [Compound A-593, 4-[2-(N-methyl-N-{5-[6-(4-methylpyridin-2-ylamino)pyridin-2-yl]thiazol-2-yl}amino)ethyl]benzoic acid dihydrochloride] | – | – | IC50 ([1]; Tables 1-x, compounds A): 100 to 1000 nM; IC50 [2, 7]: < 100 nM
Cc1ccnc(Nc2cccc(-c3cnc(C(=O)NC(C)(C)C(=O)O)s3)n2)c1 [Compound A-154] | > 1000 | 100 to 1000 | –
COc1ccnc(Nc2cccc(-c3cnc([C@H]4CC[C@H](C(=O)N5CCC(O)CC5)CC4)s3)n2)c1 [Compound A-291] | 100 to 1000 | 100 to 1000 | –

Compound | IC50 [1, 3] [nM] | IC50 [2, 4] [nM] | also measured
Cc1ccnc(Nc2cccc(-c3cnc(N4CCC(O)CC4)s3)n2)c1 [Compound A-433, 1-{5-[6-(4-methylpyridin-2-ylamino)pyridin-2-yl]thiazol-2-yl}piperidin-4-ol] | – | – | IC50 ([1]; Tables 1-x, compounds A): < 100 nM; IC50 [2, 7]: < 100 nM
Cc1ccnc(Nc2cccc(-c3cnc(C4CCC(c5nnn[nH]5)CC4)s3)n2)c1 (stereo not shown) [Compound A-326, N-(4-methylpyridin-2-yl)-N-(6-{2-[4-(1H-tetrazol-5-yl)cyclohexyl]thiazol-5-yl}pyridin-2-yl)amine] | 100 to 1000 | < 100 | –
CNC(=O)CN1C(=O)OC[C@H]1c1ncc(-c2cccc(Nc3cc(C)ccn3)n2)s1 [Compound A-402] | – | – | IC50 ([1]; Tables 1-x, compounds A): > 1000 nM; IC50 [2, 7]: > 1000 nM
CC(O)c1ccnc(Nc2cccc(-c3cnc(N4CC[C@@H](O)C4)s3)n2)c1 (stereo partly drawn) [Compound A-554, (R)-1-(5-{6-[4-(1-hydroxyethyl)pyridin-2-ylamino]pyridin-2-yl}thiazol-2-yl)pyrrolidin-3-ol] | – | – | IC50 ([1]; Tables 1-x, compounds A): 100 to 1000 nM; IC50 [2, 7]: < 100 nM
O=C1CC[C@@H](c2ncc(-c3cccc(Nc4cc(OCCO)ccn4)n3)s2)N1 [Compound A-343] | 100 to 1000 | 100 to 1000 | –
Cc1ccnc(Nc2cccc(-c3cnc(N(C)[C@H]4CC[C@H](O)CC4)s3)n2)c1 [Compound A-480, trans-4-(N-methyl-N-{5-[6-(4-methylpyridin-2-ylamino)pyridin-2-yl]thiazol-2-yl}amino)cyclohexanol] | – | – | IC50 ([1]; Tables 1-x, compounds A): 100 to 1000 nM; IC50 [2, 7]: < 100 nM
CNC(=O)C1(C)CCN(c2ncc(-c3cccc(Nc4cc(C)ccn4)n3)s2)CC1 [Compound A-501, N-methyl-4-methyl-1-{5-[6-(4-methylpyridin-2-ylamino)pyridin-2-yl]thiazol-2-yl}piperidine-4-carboxamide] | – | – | IC50 ([1]; Tables 1-x, compounds A): 100 to 1000 nM; IC50 [2, 7]: < 100 nM
Cc1ccnc(Nc2cccc(-c3cnc(COCC(=O)N4C[C@H](NCc5ccccc5)[C@@H](O)C4)s3)n2)c1 [Compound A-399] | – | – | IC50 ([1]; Tables 1-x, compounds A): > 1000 nM; IC50 [2, 7]: > 1000 nM
CC(=O)c1ccc(-c2cccc(Nc3cc(NC(C)C)ccn3)n2)s1 [Compound B-63] | – | – | IC50 [1, 5]: > 1000 nM; IC50 [2, 6]: > 1000 nM
Cc1ccnc(Nc2cccc(-c3cnc([C@H]4CC[C@H](C(=O)N5CCCC(O)C5)CC4)s3)n2)c1 (stereo partly shown) [Compound A-238] | 100 to 1000 | 100 to 1000 | –
Cc1ccnc(Nc2cccc(-c3cnc([C@@H]4CCC(=O)N4)s3)n2)c1 [Compound A-55, (S)-5-{5-[6-(4-methylpyridin-2-ylamino)pyridin-2-yl]thiazol-2-yl}pyrrolidin-2-one] | 100 to 1000 | < 100 | –
CCOC(=O)C1CCN(Cc2ncc(-c3cccc(Nc4cc(C)ccn4)n3)s2)CC1 [Compound A-167] | > 1000 | 100 to 1000 | –
Cc1ccnc(Nc2cccc(-c3cnc([C@H]4CC[C@H](CN5CCC(O)CC5)CC4)s3)n2)c1 [Compound A-296] | > 1000 | 100 to 1000 | –
Cc1ccnc(Nc2cccc(-c3cnc(CN4CCNC(=O)C4)s3)n2)c1 [Compound A-416, 4-{5-[6-(4-methylpyridin-2-ylamino)pyridin-2-yl]thiazol-2-ylmethyl}piperazin-2-one] | – | – | IC50 ([1]; Tables 1-x, compounds A): < 100 nM; IC50 [2, 7]: < 100 nM
Cc1ccnc(Nc2cccc(-c3cnc([C@H](COCc4ccccc4)NC(=O)OC(C)(C)C)s3)n2)c1 [Compound A-43] | > 1000 | > 1000 | –
CC(=O)c1ccc(-c2cccc(Nc3cc(Cl)ccn3)n2)s1 [Compound B-74, 1-{5-[6-(4-chloropyridin-2-ylamino)pyridin-2-yl]thiophen-2-yl}ethanone] | – | – | IC50 [1, 5]: 100 to 1000 nM; IC50 [2, 6]: < 100 nM
CC(=O)NCc1ncc(-c2cccc(Nc3cc(C)ccn3)n2)s1 [Compound A-143] | 100 to 1000 | 100 to 1000 | –
Cc1ccnc(Nc2cccc(-c3cnc(CNC(=O)NCCO)s3)n2)c1 [Compound A-253] | 100 to 1000 | 100 to 1000 | –
CC(=O)NCC(=O)N[C@@H](C)c1ncc(-c2cccc(Nc3cc(C)ccn3)n2)s1 [Compound A-355] | > 1000 | 100 to 1000 | –
Cc1ccnc(Nc2cccc(-c3ccc(C(=O)NCC(O)CO)s3)n2)c1 (stereo not shown) [Compound B-102] | – | – | IC50 [1, 5]: > 1000 nM; IC50 [2, 6]: 100 to 1000 nM
Cc1ccnc(Nc2cccc(-c3ccc(C(=O)C(C)C)s3)n2)c1 [Compound B-49] | – | – | IC50 [1, 5]: > 1000 nM; IC50 [2, 6]: 100 to 1000 nM
COc1ccnc(Nc2cccc(-c3cnc([C@H](C)O)s3)n2)c1 [Compound A-320, (S)-1-{5-[6-(4-methoxypyridin-2-ylamino)pyridin-2-yl]thiazol-2-yl}ethanol] | < 100 | < 100 | –
